Source: patent publication US4882319A, “Phosphonic acid substituted aromatic steroids as inhibitors of steroid 5-α-reductase” (SmithKline Beckman Corporation, priority 1988, dated 1989)
Where two headings read alike, the source gives them in different places.

Experiments:
5-α-Reductase = conditions: cited from earlier work; for Ki: literature value; for Ki / mode of inhibition (Reversible / Irreversible): Table I; for mode of inhibition (Reversible / Irreversible) / time dependence of 5-α-reductase inhibition: literature
[1] = target: T1, human steroid 5-α-reductase (Homo sapiens, UniProt P31213); experiment: biochemical
T1 construct: Prostatic particles were obtained by differential centrifugation; from tissue; host or cells: hyperplastic human prostate, washed 140,000×g particulate fraction
T1 sequence (P31213 1-254): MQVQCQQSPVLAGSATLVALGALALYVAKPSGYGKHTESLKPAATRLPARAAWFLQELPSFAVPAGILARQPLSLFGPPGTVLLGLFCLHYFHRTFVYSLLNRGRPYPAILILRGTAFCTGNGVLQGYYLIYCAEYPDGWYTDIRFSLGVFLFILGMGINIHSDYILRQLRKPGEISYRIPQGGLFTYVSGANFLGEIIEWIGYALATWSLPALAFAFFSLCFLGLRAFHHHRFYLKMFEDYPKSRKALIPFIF
Description: A compound of the invention, 17β-(N,N-diisopropylcarboxamide)-estr-1,3,5(10)-triene-3-phosphonic acid, was tested for potency in inhibiting human steroid 5-α-reductase using tissue from hyperplastic human prostates. In determining potency in inhibiting the human enzyme, the following procedure was employed:
Frozen human prostates were thawed and minced into small pieces (5 mm^3). The tissue was homogenized in 3 to 5 volumes of 20 mM potassium phosphate buffer, pH 6.5, containing 0.33M sucrose, 1 mM dithiothreitol, and 50 μM NADPH with a Brinkmann Polytron (Sybron Corporation, Westbury, N.Y.). The solution was subjected to sonication for 3 to 5 minutes with a Sonifier (Branson Sonic Power Co.) followed by hand homogenization in a glass-to-glass Dounce homogenizer (Kontes Glass Company, Vineland, N.J.). […]
A constant amount of [^14 C]-testosterone (52 to 55 mCi/mmol, New England Nuclear, Boston, Mass.) in ethanol and varying amounts of the potential inhibitor in ethanol were deposited in test tubes and concentrated to dryness in a SAVANT Speed Vac. […] The radiochemical content in the bands of the substrate and the products was determined with a BIOSCAN Imaging Scanner (Bioscan, Inc., Washington, D.C.). The percent of recovered radiolabel converted to product was calculated, from which enzyme activity was determined. […]

[2] = test system: human steroid 5-α-reductase; conditions: read-out: Michaelis-Menton constant (Km) of the substrate (testosterone); determined in a separate experiment

Row | SMILES | Ki (5-α-Reductase) [nM] | mode of inhibition (Reversible / Irreversible) (5-α-Reductase) | other results
1 | C=C1CC2C(CCC3(C)C2CC[C@]3(OC(C)=O)C(C)=O)C2(C)CCC(=O)C=C12 (some centres unmarked) [(5)] | 1250 | Irreversible | time dependence of 5-α-reductase inhibition (5-α-Reductase): time-dependent inactivator
2 | CC(C)N(C(=O)[C@H]1CCC2C3CCc4cc(P(=O)(O)O)ccc4C3CCC21C)C(C)C (stereo partly drawn) [Example 1, 17β-(N,N-Diisopropylcarboxamide)-estr-1,3,5(10)-triene-3-phosphonic Acid] |  |  | Ki [1]: 50 nM
3 | CC12CCC(=O)C=C1CCC1C2CCC2(C)C1CC[C@@H]2C(=O)O (some centres unmarked) [(1)] | 1100 | Reversible | 
4 | C[C@]12CC[C@H]3[C@@H](CCC4=CC(=O)CC[C@@]43C)[C@@H]1CC[C@@H]2O [testosterone] |  |  | Km [2]: 4.5 µM
5 | CCN(CC)C(=O)C1CCC2C3CC[C@H]4N(C)C(=O)CCC4(C)C3CCC12C (some centres unmarked) [(4)] | 5 | Reversible | 
6 | CC(CO)C1CCC2C3CC[C@H]4C(=[N+]=[N-])C(=O)CCC4(C)C3CCC12C (some centres unmarked) [(3)] |  | Irreversible | Ki (5-α-Reductase; unit inferred): 35 nM; time dependence of 5-α-reductase inhibition (5-α-Reductase): potent, time-dependent inhibitor
7 | CC(=O)C1CCC2C3CC=C=CC(=O)CCC(=O)C3CCC12C (centres unmarked) [(2)] | 1000 | Irreversible | 
